From patent US5866576A, “Epoxide-containing compounds” (Cell Therapeutics, Inc., priority 1997, dated 1999)
“Also recorded” adds a separate entry of the source.

Legend:
[1] = system: normal human bone marrow stromal cells (MSC); test: human bone marrow stromal cell (MSC) proliferation in response to PDGF BB and IL-1α; type: cell-based; conditions: Table III, PDGF BB 50 ng/ml and IL-1α 10 ng/ml
Procedure: This example illustrates the effects of inventive compounds nos. 1114, 1413, 1560, 1565, 1594, 2518, 2548R, 2548S and 3503 as effective inhibitors of normal human bone marrow stromal cells (MSC) proliferation in response to Platelet Derived Growth Factor BB (PDGF B) and IL-1α (50 and 10 ng/ml, respectively).
MSC were obtained and malintained in exponential growth, released from a growth plate with trypsin and plated into 96 well tissue culture plates in the presence of Fibroblast Growth Factor (FGFβ) for 48 hours. Growth media were removed and the cells were washed once with serum free media. The cells were then incubated 20-24 hours in serum free media.
After incubation, inventive compounds were added to the cells at the appropriate concentration and then the cells again incubated for 1 hour. PDGF B and IL-1α were added to the cells along with 3H-thymidine and the cells again incubated for an additional 24 hours.
After 24 hours of incubation, the cells were then harvested to assess incorporation of ^3 H-thymidine into DNA (proliferation). From each harvested cell culture, an IC-50 for each inventive compound tested was determined. Therefore, a lower reported IC-50 value is indicatilve of greater activity of the invention compounds in inhibiting MSC proliferation. Table III illustrates IC-50 values (in μM) for invention compounds inhibiting MSC proliferation at very low concentrations of compound.

[2] = system: thymocytes; test: IL-2 (ConA co-stimulated) induced proliferation of thymocytes; type: cell-based, mice; conditions: Mus musculus, Thymocyte, 96 h; Table II; ConA 0.25 ug/ml / IL2 20 ng/ml, 4 days
Procedure: This example illustrates the effects of inventive compounds nos. 1105, 1114, 1413, 1439, 1594, 2518, 2548R, 2548S, 2562 and 3503 as effective inhibitors of IL-2 induced proliferation of thymocytes. Single cell suspensions of thymus gland cells obtained from 4-6 week old mice were prepared. Two-hundred thousand cells were plated into individual wells of flat-bottom 96-well plates in RPMI-1640-10% FCS medium. The invention compounds were then added to the wells at varying concentrations and the cells incubated for 1-2 hours at 37° C.
Following this pre-incubation a mixture of Concanavalin A (ConA) and Interleukin-2 (IL2) was added to the experimental wells at a final concentration of (0.25 ug/ml ConA)/(20 ng/ml IL2). Appropriate positive and negative controls were set up on each plate. Each variable was set up in quadruplicate.
The plates were incubated for 4 days at 37° C. in a humidified CO2 incubator. On day 4 the wells were pulsed with 1 μCi of tritiated thymidine(3H-TdR) and the plates incubated for an additional 4 hours. The plates were then harvested and the incorporation of 3H-TdR was determined in a liquid scintillation counter. From the CPM obtained from each experimental well an IC-50 for each inventive compound tested was determined. Therefore, a lower reported IC-50 value is indicative of greater inhibition of IL-2-induced proliferation of thymocytes. Table II illustrates IC-50 values (in μM) for inventive compounds inhibiting proliferation at very low concentrations of compound.

[3] = system: thymocytes; test: murine thymocyte proliferation assay co-stimulated by ConA and IL-2 (FIGS. 7A-7E); type: cell-based, Balb/C mice; conditions: Mus musculus
Text: This example illustrates dose response curves used to generate 50% inhibition concentrations (IC50) for inventive compounds nos. 1410, 1439, 1541, 1553, 1553S, 1560, 1565, 2548R, 2548S and 2562 in a murine thymocyte proliferation assay, co-stimulated by Concanavalin A (ConA) and interleukin-2 alpha (IL-2). ConA, used to activate the T-cell receptor (TCR), along with IL-2 co-stimulation, induces T-cell proliferation and differentiation. Thymuses, obtained from normal, female Balb/C mice, were dissociated and plated into 96-well plates at a density of 2×10^5 cells/well. ConA (0.25 mg/ml) and IL-2 (15 U/ml) were added to the wells. The cells were incubated for 4 days at 37° C. On day 4, the cells were pulsed with tritiated thymidine and incubated for an additional 4 hours. The amount of tritiated thymidine incorporated by the harvested cells was determined in a liquid scintillation counter. Doses of inventive compounds (shown in FIGS. 7A-7E) were added two hours prior to ConA and IL-2 activation. Background counts were less than 200 cpm. Results obtained, illustrate the ability of the inventive compounds to inhibit thymocyte proliferation and activation. In FIG. 7A, inventive compounds nos. […] FIG. 7B presents additional data for compound no. 1410 and 1553S in this assay. […] FIG. 7C reports assay results for inventive compounds nos. 1439, 1541, 1560 and 1565. […] FIGS. 7D and 7E illustrate assay results for inventive compounds nos. 1541, 1553, 1560 and 1565 (FIG. 7D) and 2562, […] (FIG. 7E). As is true of other inventive compounds tested, all these compounds represented in FIGS. 7D and 7E inhibit thymocyte proliferation. […] 1541, 1553, 1560, 1565, 2562, 2548R and 2548S, respectively.

[4] = system: hair follicles / skin of nu/nu (nude) mice; test: hair growth stimulation in nude mice, topical, skin biopsies; type: in vivo
Text: This example illustrates the effects of inventive compound no. 1541 as hair growth stimulant in nude mice. In a procedure similar to that used in a commercial model for predicting human hair-growing ability of minoxidil, nu/nu (nude) mice were painted twice daily for 16 days on the right flank with compound no. 1541 using sterile applicators. Researches handled the mice under a laminar flow hood with applicator, wearing face mask and sterile gloves.
After 16 days, one mouse was sacrificed by cervical dislocation and skin biopsies taken from the treated areas of the shoulder/flank and the non-treated area of the dorsal pelvis (rump). Specimens were placed in 10% buffered formalin solution.
Six weeks following treatment, a second mouse was euthanatized and biopsied the same as previous mouse after 16 days.

[5] = system: lymph node cells; test: ovalbumin-induced proliferation in murine lymph cells (FIG. 13); type: cell-based, Balb/C mice; conditions: Mus musculus, OVA 200 μg/ml
Text: This example illustrates effects of the inventive compounds on ovalbumin-induced proliferation in murine lymph cells. Lymphnode cells contain a mixture of lymphoid cells: T-cells, B-cells and macrophages. Although proliferating cells in this assay are T-cells, the response obtained depends on type of antigen-presenting cell (e.g., macrophages) as well as elaboration of various immunoregulatory cytokines. Thus, this assay serves as a good model for T-cell mediated responses and as a valuable screening tool in identifying compounds useful in immunosuppressive therapeutic applications.
Murine T-cells proliferate in vitro in response to a soluble protein antigen if first primed with a corresponding antigen in vivo. This in vivo priming usually involves emulsifying the antigen in complete Freunds adjuvant and injecting this preparation into an appropriate site on a mouse. In this assay the antigen employed was chicken ovalbumin(OVA). Following emulsification in Freund's complete adjuvant, 50 μg of OVA were injected into both hind footpads of adult Balb/C mice. Fourteen days later the draining lymph nodes(popliteal) were removed and a single cell suspension was prepared in RPMI-1640 (10%FCS) medium. Two hundred thousand lymph node cells are then plated into wells of flat-bottom 96-well plates. Inventive compouds nos. 1410, 1553 (racemic), 1553(S), 1560 and 1565 were added to appropriate wells at various concentrations. OVA, at a final concentration of 200 μg/ml, was added to appropriate wells. Positive and negative controls were established on each plate, all assay variables being set up in quadruplicate.
The plates were incubated in a humidified, 5% CO2 incubator for 5 days. On the fifth day, 1 μCi of tritiated thymidine was added to each well and the plates were incubated for an additional 4 hours. The plates were harvested and the incorporation of 3H-TdR was determined in a liquid scintillation counter. The CPM data was then used to calculate experimental IC50 values for the compounds tested. Again, IC50 is defined as that concentration of compound resulting in 50% inhibition of 3H-TdR incorporation of the positive control.

[6] = system: murine splenocytes; test: murine splenocyte proliferation co-stimulated by anti-mu and IL-4 (FIG. 11); type: cell-based; conditions: Mus musculus, anti-mu / IL-4 12.5 ng/ml
Procedure: This example illustrates inhibitive effects of compounds nos. 1439, 1553S, 1560 and 1565 on murine splenocyte proliferation co-stimulated by anti-mu ([…]) and interleukin-4 (IL-4, 12.5 ng/ml). This in vitro assay, described above, is indicative of immune-suppressive/autoimmune treatment assay emphasizing humoral or B cell immune response. This assays are a predictive model for treatment or prevention of autoimmune diseases, such as diabetes, lupus, arthritis, and the like. The assay measures immunosuppressive activity of a drug at the B cell level. Spleens from adult mice contain immature B cells that express surface IgM. Cross-linking the surface IgM with an anti-mu antibody results in B cell proliferation. Additionally, this activation results in an increased expression of interleukin-4 receptors(IL-4R) on the surface of such cells. IL-4 acts as a growth factor for B cells and will increase the amount of proliferation induced by anti-mu.
A mixture of anti-mu and murine IL-4 is added to murine splenocytes to cause their proliferation. Mice spleens are obtained from adult mice and a single cell suspension is prepared in RPMI 1640 medium supplemented with 10% FCS. Cells (200,000) are plated into flat-bottomed wells and pre-incubated for 1-2 hours with various concentrations of inventive compound or PBS if it is a control. A mixture of anti-mu and murine is added to the wells at a final concentration of 5 μg/ml anti-mu and 12.5 ng/ml IL-4 and plates are incubated for three days. Proliferation is determined on the third day with a pulse of tritiated thymidine. The IC50 concentration of a particular drug is the concentration of drug that results in a 50% inhibition of the proliferation obtained from the positive control.

Row | SMILES | IC50 [1] [µM] | IC50 [2] [µM] | IC50 ([3]; FIGS. 7D and 7E) [µM] | also measured
1 | O=C1Cc2ccccc2C(=O)N1CCCCCCCCCC1CO1 (stereo not shown) [Compound 1114, N-(10,11-Oxidoundecyl) homophthalimide] | 5.1 | 10 | – | –
2 | Cn1cnc2c1c(=O)n(CCCCC1CO1)c(=O)n2C (stereo not shown) [Compound 1541, 1-(5,6-Oxidohexyl)-3,7-dimethylxanthine] | – | – | 57 | IC50 ([3]; FIG. 7C): 70 µM; skin histology findings (inflammatory cells) ([4]; after 16 days, also a few in untreated areas): mild accumulations of mixed inflammatory cells in the dermis; hair/follicle findings six weeks following treatment ([4]; six weeks following treatment): confirmed hair loss; also recorded: slightly straighter superficial portions of follicles with less curling of hair shafts; also recorded: the subcutis contained active anagen bulbs located deeply in the subcutis; skin histology findings (acanthosis) ([4]; six weeks following treatment): slightly more acanthosis (epidermal hyperplasta) in treated areas; hair follicles and hair shafts in treated areas ([4]; topical, twice daily, 16 days, biopsy at 16 days): follicles in the treated areas had hair shafts which sometimes exit to the surface; also recorded: more normal appearing hair follicles than the untreated sections; also recorded: numerous hair shafts were seen exiting follicles in the treated sections
3 | Cn1cnc2c1c(=O)n(CCCCCCC1CO1)c(=O)n2C (racemic) [Compound 1553, 1-(7,8-Oxidooctyl)-3,7-dimethylxanthine] | – | – | 29 | IC50 [5]: 45 µM
4 | O=C1c2ccccc2C(=O)N1CCCCCCCC1CO1 (stereo not shown) [Compound 1105, N-(8,9-Oxidononyl) phthalimide] | – | 8.5 | – | –
5 | Cn1c(=O)n(CCCCC2CO2)c(=O)c2[nH]cnc21 (stereo not shown) [Compound 1439, 1-(5,6-Oxidohexyl)-3-methylxanthine] | – | 8 | – | IC50 ([3]; FIG. 7C): < 25 µM; IC50 [6]: 31 µM
6 | Cn1cnc2c1c(=O)n(CCCCCC[C@H]1CO1)c(=O)n2C [Compound 1553S, 1-(7(5)-7,8-Oxidooctyl)-3,7-dimethylxanthine] | – | – | – | IC50 ([3]; FIG. 7B): 46 µM; IC50 [6]: 50 µM; IC50 [5]: 43 µM
7 | C=CCCCCn1c(=O)c2c(ncn2C)n(C)c1=O [Compound 1539, 1-(5-Hexenyl)-3,7-dimethylxanthine] | 18 | – | – | –
8 | Cn1cnc2c1c(=O)n(CCCCCCCCCCCCC1CO1)c(=O)n2C (stereo not shown) [Compound 3503, 1-(13,14-Oxidotetradecyl)-3,7-dimethylxanthine] | 14 | 10 | – | –
9 | C[C@H](CCCn1c(=O)c2c(ncn2C)n(C)c1=O)CCC1OC1(C)C (stereo partly drawn) [Compound 2548S, 1-(4-(S)-Methyl-7,8-oxide-8-methylnonyl)-3,7-dimethylxanthine] | 5.9 | 4.6 | 21 | –
10 | Cn1cnc2c1c(=O)n(CCCCCCCCC1CO1)c(=O)n2C (stereo not shown) [Compound 1565, 1-(9,10-Oxidodecyl)-3,7-dimethylxanthine] | 17 | – | 30 | IC50 ([3]; FIG. 7C): 32 µM; IC50 [6]: 40 µM; IC50 [5]: 38 µM
11 | Cn1c(=O)n(CCCCCCCCCC2CO2)c(=O)c2[nH]cnc21 (stereo not shown) [Compound 1413, 1-(11,10-Oxidoundecyl)-3-methylxanthine] | 3.7 | 7.7 | – | –
12 | C[C@@H](CCCn1c(=O)c2c(ncn2C)n(C)c1=O)CCC1OC1(C)C (stereo partly drawn) [Compound 2548R, 1-(4-(R)-Methyl-7,8-oxido-8-methylnonyl)-3,7-dimethylxanthine] | 8.7 | 7.5 | 16 | –
13 | Cn1c(=O)n(CCCCC2CO2)c(=O)c2c1ncn2COC(=O)C(C)(C)C (stereo not shown) [Compound 1410] | – | – | – | IC50 ([3]; FIG. 7A): 68 µM; IC50 ([3]; FIG. 7B): 62 µM; IC50 [5]: 55 µM
14 | Cn1cnc2c1c(=O)n(CCCCCCCCCC1CO1)c(=O)n2C (stereo not shown) [Compound 1594] | 14 | 8.5 | – | –
15 | Cn1cnc2c1c(=O)n(CCCCCCCCCCCC1CO1)c(=O)n2C (stereo not shown) [Compound 2562, 1-(12,13-Oxidotridecyl)-3,7-dimethylxanthine] | – | 3.1 | 20 | –
